Legend:
[1] = molecular target: Voltage-gated inwardly rectifying potassium channel KCNH2 (Homo sapiens, UniProt Q12809); details: hek293; also: in other assays of this panel Not Active means under 50% inhibition at 10 µM
[2] = molecular target: Matrix metalloproteinase-9 (Homo sapiens, UniProt P14780); experiment: biochemical; assay type: cell-based;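 also: inhibition of isolated MMP-9 enzyme activity toward a synthetic peptide substrate, from the DrugMatrix protease screening panel; in other assays of this panel Not Active means under 50% inhibition at 10 µM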
Glycine receptor = Glycine receptor (Rattus norvegicus, UniProt P22771+P24524+P07727+P20781); assay type: cell membranes, Wistar, Spinal cord, Membrane; also: in other assays of this panel Not Active means under 50% inhibition at 10 µM
Cytochrome P450 2A6 = molecular target: T1, Cytochrome P450 2A6 (Homo sapiens, UniProt P11509); details: bti-tn-5b1-4; also: in other assays of this panel Not Active means under 50% inhibition at 10 µM
T1 sequence (P11509 whole entry): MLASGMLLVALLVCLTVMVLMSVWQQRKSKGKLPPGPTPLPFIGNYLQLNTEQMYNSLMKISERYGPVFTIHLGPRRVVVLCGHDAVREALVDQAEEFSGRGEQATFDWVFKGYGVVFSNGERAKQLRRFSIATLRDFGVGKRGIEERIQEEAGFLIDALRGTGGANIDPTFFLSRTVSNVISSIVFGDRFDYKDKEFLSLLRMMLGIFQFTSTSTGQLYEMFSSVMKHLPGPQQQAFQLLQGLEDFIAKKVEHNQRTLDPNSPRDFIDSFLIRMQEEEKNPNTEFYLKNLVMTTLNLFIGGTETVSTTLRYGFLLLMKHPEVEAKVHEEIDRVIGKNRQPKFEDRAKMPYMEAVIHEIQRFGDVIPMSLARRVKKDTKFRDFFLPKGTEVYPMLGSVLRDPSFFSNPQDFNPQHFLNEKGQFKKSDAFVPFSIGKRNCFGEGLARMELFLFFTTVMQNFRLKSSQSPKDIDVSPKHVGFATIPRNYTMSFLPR

[3] = molecular target: T2, C-X-C chemokine receptor type 1 (Homo sapiens, UniProt P25024); also: in other assays of this panel Not Active means under 50% inhibition at 10 µM
T2 sequence (P25024 whole entry): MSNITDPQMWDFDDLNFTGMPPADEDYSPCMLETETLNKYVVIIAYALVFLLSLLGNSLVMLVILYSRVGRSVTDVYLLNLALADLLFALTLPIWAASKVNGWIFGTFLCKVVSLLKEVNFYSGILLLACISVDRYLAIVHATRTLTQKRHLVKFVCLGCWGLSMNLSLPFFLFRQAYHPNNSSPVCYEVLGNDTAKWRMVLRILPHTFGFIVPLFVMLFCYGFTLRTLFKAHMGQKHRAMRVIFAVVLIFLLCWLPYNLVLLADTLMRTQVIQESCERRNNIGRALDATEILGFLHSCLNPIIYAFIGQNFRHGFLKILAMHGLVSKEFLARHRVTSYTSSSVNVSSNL

[4] = DRUGMATRIX: GABAA, Muscimol, Central radioligand binding (ligand: [3H] Muscimol); assay type: cell membranes, Rattus norvegicus, Wistar, Brain, Membrane; details: Not Active = under 50% inhibition at 10 µM
[5] = DRUGMATRIX: Potassium Channel [KATP] radioligand binding (ligand: [3H] Glyburide); assay type: cell membranes, Membrane; details: hit-t15; Not Active = under 50% inhibition at 10 µM

Sequence of Voltage-gated inwardly rectifying potassium channel KCNH2 (Q12809 whole entry): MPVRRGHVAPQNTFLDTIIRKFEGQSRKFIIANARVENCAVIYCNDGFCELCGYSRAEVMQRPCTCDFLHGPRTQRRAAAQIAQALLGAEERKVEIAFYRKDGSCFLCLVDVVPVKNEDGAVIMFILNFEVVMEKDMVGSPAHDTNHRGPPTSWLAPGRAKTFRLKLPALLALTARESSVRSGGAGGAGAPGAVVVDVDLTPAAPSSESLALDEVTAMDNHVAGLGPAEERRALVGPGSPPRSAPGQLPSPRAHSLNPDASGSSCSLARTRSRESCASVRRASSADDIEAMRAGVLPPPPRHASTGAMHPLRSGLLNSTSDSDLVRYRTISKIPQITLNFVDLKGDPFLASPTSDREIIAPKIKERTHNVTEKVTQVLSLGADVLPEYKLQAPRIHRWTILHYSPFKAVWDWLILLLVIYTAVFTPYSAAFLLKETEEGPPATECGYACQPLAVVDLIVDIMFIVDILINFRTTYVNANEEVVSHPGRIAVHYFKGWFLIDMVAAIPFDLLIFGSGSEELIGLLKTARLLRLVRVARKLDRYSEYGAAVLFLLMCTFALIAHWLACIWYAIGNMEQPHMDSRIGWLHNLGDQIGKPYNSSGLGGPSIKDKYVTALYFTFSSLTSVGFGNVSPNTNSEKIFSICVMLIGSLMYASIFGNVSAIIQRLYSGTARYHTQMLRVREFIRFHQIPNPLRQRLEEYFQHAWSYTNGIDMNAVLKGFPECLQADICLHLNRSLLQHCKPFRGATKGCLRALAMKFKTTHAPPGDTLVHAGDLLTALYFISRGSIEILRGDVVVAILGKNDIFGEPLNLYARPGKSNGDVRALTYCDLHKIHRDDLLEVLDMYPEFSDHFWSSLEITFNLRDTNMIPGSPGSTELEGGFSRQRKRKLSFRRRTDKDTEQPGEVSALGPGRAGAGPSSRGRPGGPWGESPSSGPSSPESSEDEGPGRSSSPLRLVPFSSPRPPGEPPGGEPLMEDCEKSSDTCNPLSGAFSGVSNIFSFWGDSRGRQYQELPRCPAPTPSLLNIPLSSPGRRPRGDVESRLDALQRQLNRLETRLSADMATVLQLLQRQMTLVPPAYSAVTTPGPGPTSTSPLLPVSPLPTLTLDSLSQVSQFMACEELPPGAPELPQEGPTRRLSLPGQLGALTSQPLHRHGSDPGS
Sequence of Matrix metalloproteinase-9 (P14780 whole entry): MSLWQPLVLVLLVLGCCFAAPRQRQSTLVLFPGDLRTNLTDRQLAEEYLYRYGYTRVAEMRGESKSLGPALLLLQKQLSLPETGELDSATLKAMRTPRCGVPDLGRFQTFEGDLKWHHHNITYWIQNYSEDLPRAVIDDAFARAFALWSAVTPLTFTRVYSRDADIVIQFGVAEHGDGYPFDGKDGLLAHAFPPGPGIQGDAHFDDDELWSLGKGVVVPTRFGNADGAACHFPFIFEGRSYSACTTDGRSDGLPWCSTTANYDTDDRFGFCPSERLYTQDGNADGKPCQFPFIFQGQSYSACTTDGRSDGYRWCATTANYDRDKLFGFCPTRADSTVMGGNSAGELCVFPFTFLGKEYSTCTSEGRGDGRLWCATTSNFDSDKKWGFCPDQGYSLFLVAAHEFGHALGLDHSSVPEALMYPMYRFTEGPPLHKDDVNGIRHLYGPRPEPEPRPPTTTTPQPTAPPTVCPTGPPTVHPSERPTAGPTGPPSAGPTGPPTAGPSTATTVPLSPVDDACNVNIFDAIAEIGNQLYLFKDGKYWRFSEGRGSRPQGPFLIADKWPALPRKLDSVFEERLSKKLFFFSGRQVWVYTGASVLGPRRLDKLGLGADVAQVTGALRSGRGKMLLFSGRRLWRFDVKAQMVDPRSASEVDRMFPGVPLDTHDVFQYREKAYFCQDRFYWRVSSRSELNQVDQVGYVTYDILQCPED

COc1ccc2cc(CCC(C)=O)ccc2c1 [NABUMETONE]
Not Active: IC50 [1] | Ki [1] | IC50 [2] | IC50 (Glycine receptor) | IC50 (Cytochrome P450 2A6) | Ki (Cytochrome P450 2A6) | IC50 [3] | IC50 [4] | Ki [4] | IC50 [5] | Ki [5]

N=C(N)N/N=C/c1c(Cl)cccc1Cl [GUANABENZ]
Not Active: IC50 [1] | Ki [1] | IC50 [2] | IC50 (Glycine receptor) | IC50 (Cytochrome P450 2A6) | Ki (Cytochrome P450 2A6) | IC50 [3] | IC50 [4] | Ki [4] | IC50 [5] | Ki [5]

NC(=O)N1c2ccccc2C=Cc2ccccc21 [CARBAMAZEPINE]
Not Active: IC50 [1] | Ki [1] | IC50 [2] | IC50 (Glycine receptor) | IC50 (Cytochrome P450 2A6) | Ki (Cytochrome P450 2A6) | IC50 [3] | IC50 [4] | Ki [4] | IC50 [5] | Ki [5]

Cc1c(N(C)CS(=O)(=O)[O-])c(=O)n(-c2ccccc2)n1C.[Na+] [DIPYRONE SODIUM]
Not Active: IC50 [1] | Ki [1] | IC50 [2] | IC50 (Glycine receptor) | IC50 (Cytochrome P450 2A6) | Ki (Cytochrome P450 2A6) | IC50 [3] | IC50 [4] | Ki [4] | IC50 [5] | Ki [5]

CC[C@]1(O)CC[C@H]2[C@@H]3CCC4=CCCC[C@@H]4[C@H]3CC[C@@]21C
Not Active: IC50 [1] | Ki [1] | IC50 [2] | IC50 (Glycine receptor) | IC50 (Cytochrome P450 2A6) | Ki (Cytochrome P450 2A6) | IC50 [3] | IC50 [4] | Ki [4] | IC50 [5] | Ki [5]

CCOC(=O)n1ccn(C)c1=S [CARBIMAZOLE]
Not Active: IC50 [1] | Ki [1] | IC50 [2] | IC50 (Glycine receptor) | IC50 (Cytochrome P450 2A6) | Ki (Cytochrome P450 2A6) | IC50 [3] | IC50 [4] | Ki [4] | IC50 [5] | Ki [5]

COc1ccc(Cc2nccc3cc(OC)c(OC)cc23)cc1OC [PAPAVERINE]
Not Active: IC50 [1] | Ki [1] | IC50 [2] | IC50 (Glycine receptor) | IC50 (Cytochrome P450 2A6) | Ki (Cytochrome P450 2A6) | IC50 [3] | IC50 [4] | Ki [4] | IC50 [5] | Ki [5]

C#C[C@]1(O)CC[C@H]2[C@@H]3CCc4cc(O)ccc4[C@H]3CC[C@@]21C [ETHINYL ESTRADIOL]
Not Active: IC50 [1] | Ki [1] | IC50 [2] | IC50 (Glycine receptor) | IC50 (Cytochrome P450 2A6) | Ki (Cytochrome P450 2A6) | IC50 [3] | IC50 [4] | Ki [4] | IC50 [5] | Ki [5]

C[C@H]([C@](O)(Cn1cncn1)c1ccc(F)cc1F)S(C)(=O)=O [GENACONAZOLE]
Not Active: IC50 [1] | Ki [1] | IC50 [2] | IC50 (Glycine receptor) | IC50 (Cytochrome P450 2A6) | Ki (Cytochrome P450 2A6) | IC50 [3] | IC50 [4] | Ki [4] | IC50 [5] | Ki [5]

CCOC(=O)C1=C(C)NC(C)=C(C(=O)OC)C1c1cccc(Cl)c1Cl (stereo not drawn) [FELODIPINE]
Not Active: IC50 [1] | Ki [1] | IC50 [2] | IC50 (Glycine receptor) | IC50 (Cytochrome P450 2A6) | Ki (Cytochrome P450 2A6) | IC50 [3] | IC50 [4] | Ki [4] | IC50 [5] | Ki [5]

CC(C)C[C@H]1C(=O)N2CCC[C@H]2[C@]2(O)O[C@](NC(=O)[C@@H]3C=C4c5cccc6[nH]c(Br)c(c56)C[C@H]4N(C)C3)(C(C)C)C(=O)N12 [BROMOCRIPTINE]
Not Active: IC50 [1] | Ki [1] | IC50 [2] | IC50 (Glycine receptor) | IC50 (Cytochrome P450 2A6) | Ki (Cytochrome P450 2A6) | IC50 [3] | IC50 [4] | Ki [4] | IC50 [5] | Ki [5]

CCOC(=O)[C@H](CCc1ccccc1)N[C@@H](C)C(=O)N1CCC[C@H]1C(=O)O
Not Active: IC50 [1] | Ki [1] | IC50 [2] | IC50 (Glycine receptor) | IC50 (Cytochrome P450 2A6) | Ki (Cytochrome P450 2A6) | IC50 [3] | IC50 [4] | Ki [4] | IC50 [5] | Ki [5]

Nn1nnc2ccccc21
Not Active: IC50 [1] | Ki [1] | IC50 [2] | IC50 (Glycine receptor) | IC50 (Cytochrome P450 2A6) | Ki (Cytochrome P450 2A6) | IC50 [3] | IC50 [4] | Ki [4] | IC50 [5] | Ki [5]

CC(C)(CO)C(O)C(=O)NCCCO (stereo not drawn) [PANTHENOL]
Not Active: IC50 [1] | Ki [1] | IC50 [2] | IC50 (Glycine receptor) | IC50 (Cytochrome P450 2A6) | Ki (Cytochrome P450 2A6) | IC50 [3] | IC50 [4] | Ki [4] | IC50 [5] | Ki [5]

O=C(O)Cc1ccc(-c2ccccc2)cc1 [FELBINAC]
Not Active: IC50 [1] | Ki [1] | IC50 [2] | IC50 (Glycine receptor) | IC50 (Cytochrome P450 2A6) | Ki (Cytochrome P450 2A6) | IC50 [3] | IC50 [4] | Ki [4] | IC50 [5] | Ki [5]

O=C(O)c1cccnc1 [NIACIN]
Not Active: IC50 [1] | Ki [1] | IC50 [2] | IC50 (Glycine receptor) | IC50 (Cytochrome P450 2A6) | Ki (Cytochrome P450 2A6) | IC50 [3] | IC50 [4] | Ki [4] | IC50 [5] | Ki [5]

C[C@H](C(=O)O)c1cccc(C(=O)c2ccccc2)c1 [DEXKETOPROFEN]
Not Active: IC50 [1] | Ki [1] | IC50 [2] | IC50 (Glycine receptor) | IC50 (Cytochrome P450 2A6) | Ki (Cytochrome P450 2A6) | IC50 [3] | IC50 [4] | Ki [4] | IC50 [5] | Ki [5]

CC[C@H]1OC(=O)[C@H](C)[C@@H](O[C@H]2C[C@@](C)(OC)[C@@H](O)[C@H](C)O2)[C@H](C)[C@@H](O[C@@H]2O[C@H](C)C[C@H](N(C)C)[C@H]2O)[C@](C)(OC)C[C@@H](C)C(=O)[C@H](C)[C@@H](O)[C@]1(C)O [CLARITHROMYCIN]
Not Active: IC50 [1] | Ki [1] | IC50 [2] | IC50 (Glycine receptor) | IC50 (Cytochrome P450 2A6) | Ki (Cytochrome P450 2A6) | IC50 [3] | IC50 [4] | Ki [4] | IC50 [5] | Ki [5]

Source: ChEMBL document CHEMBL1909046, “DrugMatrix in vitro pharmacology data”
